Legend:
Net = conditions: inhibitor 10 μM for 30 min; FIG. 3 lanes 3, 4
Description: (§1) NIH3T3 cells were transfected as described above with the control vector for GPCR (pCEFL) or the vector for GPCR (Line 2). 14 hours later, cells were washed and left in the growth medium for 2.5 hours. The cells were then treated with SB 203580 (10 μM) (Alexis Corp.) or U0126 (10 μM) (Promega) for 30 min. After 6 hours, extracts were analysed by SDS-PAGE and Western-blotting with antibodies against phospho-serine 365 Net (antibody 2F3, Ducret et al. (Oncogene, in press) or activated ERK (Promega).
Phosphorylation of endogenous Net was followed with a phospho-specific antibody that recognises phospho-serine 365, which is important for phosphorylation induced activation of Net by ERK and p38 signalling cascades.
as §1, with “(pCEFL-GPCR).” for “(Line 2).”, “[Antibody 2F3 , Giovane” for “(antibody 2F3, Ducret”, “(Genomics (1995) 29:769-72)]” for “(Oncogene, in press)”

NES binding to CRM1 = NES binding to CRM1 (Homo sapiens, UniProt O14980); conditions: cited from earlier work
Chain of NES binding to CRM1 (O14980 whole entry): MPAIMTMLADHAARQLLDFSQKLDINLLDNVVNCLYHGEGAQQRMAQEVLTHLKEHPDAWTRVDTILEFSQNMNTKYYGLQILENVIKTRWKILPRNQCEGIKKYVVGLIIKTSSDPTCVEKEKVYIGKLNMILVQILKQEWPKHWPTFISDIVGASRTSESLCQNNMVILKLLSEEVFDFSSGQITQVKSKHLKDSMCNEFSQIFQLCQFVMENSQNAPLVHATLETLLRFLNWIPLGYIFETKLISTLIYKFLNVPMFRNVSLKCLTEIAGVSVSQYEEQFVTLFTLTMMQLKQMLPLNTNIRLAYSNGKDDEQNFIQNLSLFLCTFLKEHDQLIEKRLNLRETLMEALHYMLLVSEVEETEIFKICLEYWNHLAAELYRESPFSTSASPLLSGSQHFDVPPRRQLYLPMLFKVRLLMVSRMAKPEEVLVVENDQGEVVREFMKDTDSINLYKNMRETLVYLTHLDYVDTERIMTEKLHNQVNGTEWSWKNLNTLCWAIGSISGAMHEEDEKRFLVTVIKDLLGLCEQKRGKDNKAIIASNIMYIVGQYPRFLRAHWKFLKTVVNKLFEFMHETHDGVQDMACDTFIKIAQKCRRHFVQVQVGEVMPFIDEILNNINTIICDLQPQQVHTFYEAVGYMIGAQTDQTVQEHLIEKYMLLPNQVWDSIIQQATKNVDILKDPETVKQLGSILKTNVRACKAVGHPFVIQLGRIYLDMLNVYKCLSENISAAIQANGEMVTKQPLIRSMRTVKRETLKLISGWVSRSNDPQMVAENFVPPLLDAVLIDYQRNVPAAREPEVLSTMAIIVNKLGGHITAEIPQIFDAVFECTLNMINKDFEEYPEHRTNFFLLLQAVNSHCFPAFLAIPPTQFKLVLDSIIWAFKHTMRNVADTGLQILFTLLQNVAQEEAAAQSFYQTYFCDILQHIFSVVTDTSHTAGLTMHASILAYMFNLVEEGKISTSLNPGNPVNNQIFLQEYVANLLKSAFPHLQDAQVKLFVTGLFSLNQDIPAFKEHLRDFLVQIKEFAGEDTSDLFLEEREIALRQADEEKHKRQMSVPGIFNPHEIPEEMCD

ERK = ERK activation in GPCR-transfected NIH3T3 cells (Western blot, activated ERK antibody); assay type: cell-based; conditions: 10 μM; FIG. 3
Source text: FIG. 3: Phosphorylation of endogenous Net.

HUVEC cells = assay: Microtubule formation by HUVEC cells on Matrigel induced by conditioned media from transfected NIH3T3 cells; assay type: cell-based; conditions: 10 ng/ml recombinant human VEGF added to conditioned medium; FIG. 1d, 1f
Description: FIG. 1: Microtubule formation by HUVEC cells on Matrigel induced by conditioned media from differentially transfected NIH3T3 cells. NIH3T3 cells were transfected by pCEFL-GPCR alone (FIG. 1a); pCEFL-GPCR with p601D-antisense-Net (FIG. 1c) or p601D-transdominant-Net (FIG. e). Before incubation with HUVEC cells, some of the conditioned media were incubated with either: (b) 0.2 μg/ml of anti-mouse-VEGF polyclonal antibody (total goat IgG; R&D SYSTEMS) or with (d and f) 10 ng/ml of recombinant human VEGF-A (R&D). The plates were observed after 24 hours (phase contrast, original magnification, ×40).
a. NIH3T3 cells (C11) were transfected by the calcium phosphate technique with pCEFL-KSHVGPCR (mouse EF12 promoter) and the AntiNet expression vector or the corresponding empty vector (p601D: Beddinton et al.1989,Development 106:37-46). 16 hours after applying the precipitate, the cells were washed twice with DMEM, incubated in DMEM with 0,05% FCS for 48 hours. The medium was collected and either tested immediately or stored at −80° C.
b. HUVEC cells (passage 4-6) were grown in DMEM/F12K containing 10% FCS, Heparine (50 ng/mnl), ECGF(Endothelial Cell Growth Factor, Sigma, 50 ng/ml) and Glutamine (2 mM).
c. The wells of 24-multiwell plates were coated with […] of Growth Factor Reduced MATRIGEL Matrix (Collaborative Biomedical Products) at 4° C. and incubated for 30 min at 37° C.
d. […]

## N#CC(=C(N)Sc1ccccc1N)C(C#N)=C(N)Sc1ccccc1N [U 0126, 1,4-diamino-2,3-dicyano-1,4 bis[2-aminophenylthio]butadiene]
Net
  GPCR induced phosphorylation of Net (phospho-serine 365): induction was dependent on both the p38 and ERK pathways

## CCC(=C/[C@H](C)C/C=C/C(C)=C/[C@@H](C)C(=O)[C@@H](C)[C@H](O)[C@@H](C)C/C(C)=C/C(=O)O)/C=C/[C@@H]1OC(=O)C=C[C@@H]1C [leptomycin B]
NES binding to CRM1
  active nuclear export of the Net protein induced by the JNK pathway: inhibited

## C[S+]([O-])c1ccc(-c2nc(-c3ccncc3)c(-c3ccc(F)cc3)[nH]2)cc1 (centres unmarked) [SB 203580, 4-[5-(4-fluorophenyl)4-4-(pyridinyl)-1H-imidazol-2-yl]phenyl methyl sulfoxide]
Net
  GPCR induced phosphorylation of Net (phospho-serine 365): induction was dependent on both the p38 and ERK pathways
ERK
  ERK activation: did not inhibit ERK activation

B1: VEGFa: recombinant human VEGF-A (R&D) (protein)
chain: APTTEGEQKSHEVIKFMDVYQRSYCRPIETLVDIFQEYPDEIEYIFKPSCVPLMRCAGCCNDEALECVPTSESNITMQIMRIKPHQSQHIGEMSFLQHSRCECRPKKDRTKPENHCEPCSERRKHLFVQDPQTCKCSCKNTDSRCKARQLELNERTCRCDKPRR
HUVEC cells
  microtubule inducing activity of conditioned medium from Net down-regulated GPCR cells after adding VEGFa: restored microtubule inducing activity
